Reference: publication PMC10058949, “Effect of N-Terminal Peptide Modifications on In Vitro and In Vivo Properties of ^177Lu-Labeled Peptide Analogs Targeting CCK2R” (Pharmaceutics, 2023)

How the values were obtained:
[1] = Biodistribution blocking experiment with 1000-fold excess of non-radiolabeled peptide; type: in vivo, mice; conditions: female, BALB/c nude, mouse, in vivo, iv, total radioactivity, blocking
Description: Then, after 7–11 days, when visible tumor xenografts were formed, groups of 5 mice were injected intravenously via a lateral tail vein with ~0.5 MBq of radiolabeled peptide, corresponding to 20 pmol of peptide, in a total volume of ~150 µL in PBS/0.5% BSA. Using an additional mouse per group, a blocking study was performed by co-injecting a 1000-fold molar excess of the respective peptide analog (20 nmol) together with the radiolabeled peptide. For quantification, a 1:1, 1:10 and 1:50 standard was prepared using aliquots of the injection solution mixed with PBS/0.5% BSA. Mice were euthanized by cervical dislocation 4 h after injection. Subsequently, a blood sample was collected, and different tissues were dissected. All samples, as well as the rest of the body were weighed, and the activity measured in the γ-counter together with the standard. Results were expressed as percentage of injected activity per gram of tissue (%IA/g).

[2] = Octanol/PBS distribution coefficient (logD7.4); type: physicochemical; conditions: pH 7.4
Description: The stability studies with the ^177Lu-labeled peptide analogs were carried out at a concentration of 0.5 nmol peptide/mL in fresh human serum (n = 2) for up to 24 h. A mixture of 0.05 nmol/mL of the radiolabeled peptides in PBS and octanol (1/1, v/v) was used to evaluate the octanol/PBS distribution coefficient (logD7.4; n = 8). To determine the protein binding in human serum by Sephadex G-50 size-exclusion chromatography (GE Healthcare Illustra, Little Chalfont, UK), a 25 µL serum sample was used for different time points after incubation. All steps were performed according to previously published protocols.

A tissue uptake at 4 h ([1]; uptake in A431-CCK2R xenograft) of 0.39 %ID/g, a tissue uptake at 4 h ([1]; uptake in A431-mock xenograft) of 0.16 %ID/g and a tissue uptake at 4 h ([1]; uptake in blood) of 0.02 %ID/g were found for `CCCC[C@@H](C(=O)N[C@@H](CC(=O)O)C(=O)N[C@@H](Cc1cccc2ccccc12)C(N)=O)N(C)C(=O)[C@H](Cc1c[nH]c2ccccc12)NC(=O)CCNC(=O)CC(O)CNC(=O)CC(O)CNC(=O)CN1CCN(CC(=O)O)CCN(CC(=O)O)CCN(CC(=O)O)CC1` (stereo partly drawn) [[^177Lu]Lu-2, metal not drawn] in this work. It also gave a tissue uptake at 4 h ([1]; uptake in femur) of 0.09 %ID/g, a tissue uptake at 4 h ([1]; uptake in heart) of 0.04 %ID/g and a tissue uptake at 4 h ([1]; uptake in lung) of 0.2 %ID/g. For the same molecule, the tissue uptake at 4 h ([1]; uptake in pancreas) was 0.05 %ID/g, the tissue uptake at 4 h ([1]; uptake in stomach) was 0.09 %ID/g and the logD [2] was -2.18 ± 0.38.
